Reference: the NIST ThermoML archive (doi:10.1016/j.tca.2011.02.002)

Assays:
[1] = xn = mol fraction of the nth substance listed; conditions: 101 kPa, Liquid; for mass density: Vibrating tube method
[2] = excess molar enthalpy (molar enthalpy of mixing); xn = mol fraction of the nth substance listed; conditions: 308.15 K, 101 kPa, Liquid, 2-drop calorimeter (CSC 4600_

c1ccncc1 [pyridine] + C1CCOCC1
[1]
Conditions | mass density, 298.15 K [kg/m3] | mass density, 303.15 K [kg/m3] | mass density, 308.15 K [kg/m3] | speed of sound, 298.15 K [m/s] | speed of sound, 303.15 K [m/s] | speed of sound, 308.15 K [m/s]
x2 = 0 | 978.249 | 973.224 | 968.166 | 1417.6 | 1397.4 | 1377.1
x2 = 0.0427 | 973.663 | 968.634 | 963.658 | 1411.9 | 1391.4 | 1370.9
x2 = 0.1021 | 967.309 | 962.276 | 957.232 | 1403.6 | 1382.9 | 1362.3
x2 = 0.1883 | 958.157 | 953.12 | 948.063 | 1391.4 | 1370.2 | 1349.4
x2 = 0.2415 | 952.565 | 947.532 | 942.634 | 1383.7 | 1362.2 | 1341.1
x2 = 0.2853 | 948.002 | 942.969 | 938.037 | 1377.4 | 1355.6 | 1334.3
x2 = 0.3438 | 941.972 | 936.936 | 931.957 | 1368.8 | 1346.7 | 1325.4
x2 = 0.3742 | 938.871 | 933.829 | 928.814 | 1364.2 | 1342.1 | 1320.6
x2 = 0.4263 | 933.597 | 928.553 | 923.491 | 1356.5 | 1334 | 1312.5
x2 = 0.4642 | 929.793 | 924.748 | 919.649 | 1350.7 | 1328.2 | 1306.7
x2 = 0.5364 | 922.65 | 917.601 | 912.425 | 1339.8 | 1317.1 | 1295.4
x2 = 0.5721 | 919.167 | 914.108 | 908.895 | 1334.4 | 1311.6 | 1289.8
x2 = 0.6283 | 913.73 | 908.661 | 903.408 | 1325.8 | 1302.9 | 1281.1
x2 = 0.6872 | 908.097 | 903.027 | 897.739 | 1316.9 | 1293.9 | 1271.9
x2 = 0.7336 | 903.711 | 898.628 | 893.335 | 1309.8 | 1286.9 | 1264.7
x2 = 0.7823 | 899.149 | 894.056 | 888.752 | 1302.5 | 1279.5 | 1257.3
x2 = 0.8351 | 894.248 | 889.143 | 883.845 | 1294.4 | 1271.5 | 1249.2
x2 = 0.8752 | 890.543 | 885.431 | 880.16 | 1288.5 | 1265.4 | 1243.1
x2 = 0.9354 | 885.027 | 879.898 | 874.668 | 1279.5 | 1256.4 | 1234.1

[2]
Conditions | excess molar enthalpy [kJ/mol]
x2 = 0.0552 | 0.0132
x2 = 0.1006 | 0.0262
x2 = 0.1525 | 0.0424
x2 = 0.2014 | 0.0588
x2 = 0.2915 | 0.0898
x2 = 0.3462 | 0.106
x2 = 0.3871 | 0.121
x2 = 0.4217 | 0.131
x2 = 0.4853 | 0.145
x2 = 0.5363 | 0.157
x2 = 0.5802 | 0.162
x2 = 0.6461 | 0.163
x2 = 0.6864 | 0.164
x2 = 0.7344 | 0.156
x2 = 0.7856 | 0.143
x2 = 0.8315 | 0.125
x2 = 0.8911 | 0.0918
x2 = 0.9347 | 0.0582
